Paper PMC3653620 (Investigative radiology, 2012)
Entries after “also recorded” stand apart in the source; their conditions may differ. Like-named read-outs stand apart in the source and are kept apart here. Where a SMILES comes first, the peptide text is derived from it. Bridges are numbered along the chain shown (N, C = ends). [ ]: non-standard residue; d: D form. The star is where a group is joined. X1 = O=C(O)CN1CCN(CC(=O)O)CCN(C(CCC(=O)NCC[C@H](NC(=O)CCC(C(=O)O)N2CCN(CC(=O)O)CCN(CC(=O)O)CCN(CC(=O)O)CC2)C(=O)NCc2ccc(CN*)cc2)C(=O)O)CCN(CC(=O)O)CC1; DOTAGA = O=C(O)CN1CCN(CC(=O)O)CCN(C(CCC(=O)*)C(=O)O)CCN(CC(=O)O)CC1; Tyr(3-Cl) = N[C@@H](Cc1ccc(O)c(Cl)c1)C(=O)O; Hyp = O=C(O)[C@@H]1C[C@@H](O)CN1; Dab = NCC[C@H](N)C(=O)O

What was measured:
[1] = system: tumor periphery (breast cancer xenograft, BT-20); test: Contrast agent washout from tumor periphery, T1-weighted MRI at 9.4T; format: in vivo, nude mice; human adenocarcinoma BT-20 cell line; details: for retention in the tumor periphery / washout, in words: Gd-DTPA 200, EP-2104R or CLP 20 μmol/kg i.v.; for t1/2 in the tumor periphery: CNR vs time
[2] = system: tumor core (breast cancer xenograft, BT-20); test: Contrast agent washout from tumor core, T1-weighted MRI at 9.4T; format: in vivo, nude mice; human adenocarcinoma BT-20 cell line
[3] = system: blood plasma proteins; details: cited from earlier work
[4] = cited from earlier work; for relaxivity at 9.4T: per molecule
[5] = system: thrombi in the heart chambers, arteries or veins; details: animal models and clinical trials; ref [32]-[43]; cited from earlier work
[6] = cited from earlier work

Compound: CC[C@H](C)[C@H](NC(=O)[C@H](Cc1ccc(O)cc1)NC(=O)[C@@H]1CSSC[C@H](NC(=O)[C@@H](CCC(=O)O)NC(=O)[C@H](Cc2ccc(O)cc2)NC(=O)[C@H](CCNC(=O)CCC(C(=O)O)N2CCN(CC(=O)O)CCN(CC(=O)O)CCN(CC(=O)O)CC2)NC(=O)CCC(C(=O)O)N2CCN(CC(=O)O)CCN(CC(=O)O)CCN(CC(=O)O)CC2)C(=O)N2C[C@H](O)C[C@H]2C(=O)N[C@@H](Cc2ccc(O)c(Cl)c2)C(=O)NCC(=O)N[C@@H](CC(C)C)C(=O)N1)C(=O)N[C@@H](CCC(N)=O)C(=O)NCc1ccc(CNC(=O)[C@H](CCNC(=O)CCC(C(=O)O)N2CCN(CC(=O)O)CCN(CC(=O)O)CCN(CC(=O)O)CC2)NC(=O)CCC(C(=O)O)N2CCN(CC(=O)O)CCN(CC(=O)O)CCN(CC(=O)O)CC2)cc1 (stereo partly drawn) [EP-2104R] ({DOTAGA}-[Dab](DOTAGA)Y[dE]C[Hyp][Tyr(3-Cl)]GLCYIQ-X1; disulfide 4-9; N-terminus and C-terminus assumed)
- retention in the tumor periphery / washout, in words ([1]; 9.4T): stays in the tumor periphery much longer than Gd-DTPA or CLP; also recorded: significantly longer retained in the tumor periphery; also recorded: retained significantly longer in the tumor periphery than either Gd-DTPA or CLP
- duration of persistent enhancement of the tumor periphery ([1]; after EP-2104R injection, 20 μmol/kg i.v., FLASH images, 9.4T): ≥ 90 min
- variability of washout from the tumor periphery ([1]; in vivo): varied several fold across this ROI
- washout from the tumor periphery, % slower than Gd-DTPA ([1]; in vivo): 190±75%
- washout from the tumor periphery, fold slower than CLP ([1]; in vivo): 5 fold
- Half-life in the tumor periphery (mean ± SEM) ([1]; in vivo, iv): 103 ± 18 min
- t1/2 in the tumor periphery, Mean (St Dev) ([1]; in vivo, iv): 103 (53) min
- enhancement of tumor ([2]; EP-2104R 20 μmol/kg i.v., transient, tumor core and periphery, 9.4T): transiently enhanced both the tumor core and periphery
- washout from the tumor core, % slower than Gd-DTPA ([2]; in vivo): 20%
- t1/2, washout from the tumor core ([2]; mouse, in vivo, iv): 45 ± 9 min
- affinity for blood plasma proteins [3]: only very low affinity for blood plasma proteins
- relaxivity at 9.4T, per Gd ([4]; 9.4T, per Gd, ref [48],[49]): 6.4 mM⁻¹ s⁻¹
- relaxivity at 9.4T ([4]; 9.4T, ref [48],[49]): 25.6 mM⁻¹ s⁻¹
- relaxivity of fibrin-bound probe at 9.4T vs clinical field strengths ([4]; fibrin-bound, 9.4T vs clinical field strengths, ref [22],[48]): much lower at this field compared to clinical field strengths
- identification of thrombi [5]: efficacious in identifying thrombi in the heart chambers, arteries or veins
- excretion ([6]; in vivo): exclusive renal excretion

Compound: CNC[C@H](O)[C@@H](O)[C@H](O)[C@H](O)CO.CNC[C@H](O)[C@@H](O)[C@H](O)[C@H](O)CO.O=C([O-])CN(CCN(CC(=O)[O-])CC(=O)O)CCN(CC(=O)[O-])CC(=O)O.[Gd+3] [Gd-DTPA, Gadopentetate dimeglumine]
- retention in the tumor periphery / washout, in words ([1]; 9.4T): not retained in the tumor periphery; also recorded: significantly faster washout than EP-2104R
- half-life in tumor periphery compared with EP-2104R ([1]; all animals, p<0.05 for both): significantly shorter
- variability of washout from the tumor periphery ([1]; among all the mice, or across the tumor periphery ROI in some mice): very similar among all the mice
- t1/2 in the tumor periphery ([1]; animal 3, Gd-DTPA 200 μmol/kg then EP-2104R 20 μmol/kg i.v., 9.4T): 27 min
- t1/2 in the tumor periphery ([1]; animal 4, Gd-DTPA 200 μmol/kg then EP-2104R 20 μmol/kg i.v., 9.4T): 38 min
- t1/2 in the tumor periphery ([1]; animal 5, Gd-DTPA 200 μmol/kg then EP-2104R 20 μmol/kg i.v., 9.4T): 26 min
- t1/2 in the tumor periphery ([1]; animal 6, Gd-DTPA 200 μmol/kg then EP-2104R 20 μmol/kg i.v., 9.4T): 23 min
- t1/2 in the tumor periphery ([1]; animal 7, Gd-DTPA 200 μmol/kg then EP-2104R 20 μmol/kg i.v., 9.4T): 38 min
- t1/2 in the tumor periphery ([1]; animal 8, Gd-DTPA 200 μmol/kg then EP-2104R 20 μmol/kg i.v., 9.4T): 41 min
- t1/2 in the tumor periphery ([1]; animal 9, Gd-DTPA 200 μmol/kg then CLP 20 μmol/kg i.v., 9.4T): 29 min
- t1/2 in the tumor periphery ([1]; animal 10, Gd-DTPA 200 μmol/kg then CLP 20 μmol/kg i.v., 9.4T): 20 min
- t1/2 in the tumor periphery ([1]; animal 11, Gd-DTPA 200 μmol/kg then CLP 20 μmol/kg i.v., 9.4T): 27 min
- t1/2, washout from the tumor core ([2]; 3 mice, Gd-DTPA 200 μmol/kg followed by CLP 20 μmol/kg i.v., ±SEM, p=0.35): 28 ± 5 min
- t1/2, washout from the tumor core ([2]; 6 mice, Gd-DTPA 200 μmol/kg followed by EP-2104R 20 μmol/kg i.v., ±SEM, p=0.17): 38 ± 9 min
- affinity for blood plasma proteins ([3]; ref [22],[33]): only very low affinity for blood plasma proteins
- relaxivity at 9.4T ([4]; 9.4T, ref [48],[49]): 3.7 mM⁻¹ s⁻¹
- excretion ([6]; ref [22],[33]): exclusive renal excretion
